Measured values as given in PubChem BioAssay AID330 (DTP/NCI, 2004).
“And” between values parts separate entries of the source, which are not always exact repeats. Equal entries are not always repeated. Inconclusive results and toxic doses are left out. How the source made its calls: active means survival T/C of 150% or more; inactive means T/C below 125% in these data.

System: P388 leukemia ip, CD2F1 mice, survival T/C
Assay: NCI In Vivo Anticancer Drug Screen. Data for tumor model P388 Leukemia (intraperitoneal) in CD2F1 (CDF1) mice
Conditions: endpoint: median survival time, higher = longer survival
Method in brief: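 Mice carrying the transplanted tumor received test compound or vehicle. Survival was recorded in each group, and the value is the treated-group measurement divided by that of the vehicle-treated control group.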

[1] = dose: 50.0 mg/kg/injection, schedule: Q01DX009 (ip), vehicle: Klucel (hydroxypropylcellulose) (HPC)
[2] = dose: 100.0 mg/kg/injection, schedule: Q01DX009 (ip), vehicle: Klucel (hydroxypropylcellulose) (HPC)
[3] = dose: 200.0 mg/kg/injection, schedule: Q01DX009 (ip), vehicle: Klucel (hydroxypropylcellulose) (HPC)
[4] = dose: 60.0 mg/kg/injection, schedule: Q01DX005 (ip), vehicle: Klucel (hydroxypropylcellulose) (HPC)
[5] = dose: 120.0 mg/kg/injection, schedule: Q01DX005 (ip), vehicle: Klucel (hydroxypropylcellulose) (HPC)
[6] = dose: 240.0 mg/kg/injection, schedule: Q01DX005 (ip), vehicle: Klucel (hydroxypropylcellulose) (HPC)
[7] = dose: 12.5 mg/kg/injection, schedule: Q01DX009 (ip), vehicle: saline
[8] = dose: 25.0 mg/kg/injection, schedule: Q01DX009 (ip), vehicle: saline
[9] = dose: 50.0 mg/kg/injection, schedule: Q01DX009 (ip), vehicle: saline
[10] = dose: 50.0 mg/kg/injection, schedule: Q01DX005 (ip), vehicle: Klucel (hydroxypropylcellulose) (HPC)
[11] = dose: 100.0 mg/kg/injection, schedule: Q01DX005 (ip), vehicle: Klucel (hydroxypropylcellulose) (HPC)
[12] = dose: 200.0 mg/kg/injection, schedule: Q01DX005 (ip), vehicle: Klucel (hydroxypropylcellulose) (HPC)
[13] = dose: 60.0 mg/kg/injection, schedule: Q01DX005 (ip), vehicle: saline with Tween-80
[14] = dose: 120.0 mg/kg/injection, schedule: Q01DX005 (ip), vehicle: saline with Tween-80
[15] = dose: 240.0 mg/kg/injection, schedule: Q01DX005 (ip), vehicle: saline with Tween-80
[16] = dose: 100.0 mg/kg/injection, schedule: Q04DX003 (ip), vehicle: saline with Tween-80
[17] = dose: 200.0 mg/kg/injection, schedule: Q04DX003 (ip), vehicle: saline with Tween-80
[18] = dose: 400.0 mg/kg/injection, schedule: Q04DX003 (ip), vehicle: saline with Tween-80
[19] = dose: 25.0 mg/kg/injection, schedule: Q01DX009 (ip), vehicle: Klucel (hydroxypropylcellulose) (HPC)
[20] = dose: 100.0 mg/kg/injection, schedule: Q01DX009 (ip), vehicle: saline
[21] = dose: 200.0 mg/kg/injection, schedule: Q01DX009 (ip), vehicle: saline

Measured: T/C

CC(Cl)C(=O)c1ccc(N)cc1 (stereo not given)
inactive: [1] 99 % of control | [2] 99 % of control | [3] 99 % of control

COCN(C)N=Nc1ccc(C(=O)OC)cc1
inactive: [4] 107 % of control | [5] 101 % of control | [6] 87 % of control

C=C(CC(=O)O)C(=O)O (tested in a mixture with another compound)
inactive: [7] 100 % of control | [8] 100 % of control | [9] 100 % of control

O=C(O)C(Cc1ccccc1)Nc1ncnc2nc[nH]c12 (stereo not given)
inactive: [10] 93 % of control | [11] 100 % of control | [12] 100 % of control

CCC(/C=C/c1ccccc1)=N\NC(=O)c1ccc(Cl)c(Cl)c1
inactive: [13] 88 % of control and 89 % of control | [14] 88 % of control | [15] 92 % of control and 97 % of control

CCCCc1cc(-c2ccc(C)cc2)c(CCCC)c2c1-c1cccc3cccc-2c13
inactive: [16] 98 % of control | [17] 91 % of control | [18] 92 % of control

O=C(O)C(c1ccccc1)C1CCCC1 (stereo not given)
inactive: dose: 50.0 mg/kg/injection, schedule: Q04DX003 (ip), vehicle: saline with Tween-80 110 % of control | [16] 110 % of control | [17] 105 % of control

CCOC(=O)CCCCCO[Si](c1ccccc1)(c1ccccc1)C(C)(C)C
inactive: [13] 110 % of control | [14] 99 % of control | [15] 88 % of control

Cc1c(N=Nc2cccc(Cl)c2)c(-c2ccccc2)nn1C(N)=S
inactive: dose: 100.0 mg/kg/injection, schedule: Q01DX001 (ip), vehicle: saline with Tween-80 89 % of control | dose: 200.0 mg/kg/injection, schedule: Q01DX001 (ip), vehicle: saline with Tween-80 92 % of control | dose: 400.0 mg/kg/injection, schedule: Q01DX001 (ip), vehicle: saline with Tween-80 90 % of control

Clc1nc2nc[nH]c2nc1Cl
inactive: dose: 11.0 mg/kg/injection, schedule: Q01DX009 (ip), vehicle: saline with Tween-80 100 % of control | dose: 16.5 mg/kg/injection, schedule: Q01DX009 (ip), vehicle: saline with Tween-80 104 % of control | dose: 25.0 mg/kg/injection, schedule: Q01DX009 (ip), vehicle: saline with Tween-80 100 % of control | dose: 25.0 mg/kg/injection, schedule: Q04DX003 (ip), vehicle: saline with Tween-80 91 % of control | dose: 37.5 mg/kg/injection, schedule: Q01DX009 (ip), vehicle: saline with Tween-80 100 % of control

CC1=NCCN=C(C)C1N=Nc1ccc(S(=O)(=O)N=C(N)N)cc1
inactive: [16] 90 % of control | [17] 92 % of control | [18] 90 % of control

O=C(N/N=C/c1cc(Cl)cc(Cl)c1[O-])c1ccccc1.O=C(N/N=C/c1cc(Cl)cc(Cl)c1[O-])c1ccccc1.[Fe+2]
inactive: dose: 100.0 mg/kg/injection, schedule: Q04DX002 (ip), vehicle: saline with Tween-80 98 % of control | dose: 200.0 mg/kg/injection, schedule: Q04DX002 (ip), vehicle: saline with Tween-80 103 % of control | dose: 400.0 mg/kg/injection, schedule: Q04DX002 (ip), vehicle: saline with Tween-80 100 % of control

O=C1OCCN1/N=C/C=N/N1CCOC1=O
inactive: dose: 1.56 mg/kg/injection, schedule: Q01DX009 (ip), vehicle: saline with Tween-80 95 % of control | dose: 3.12 mg/kg/injection, schedule: Q01DX009 (ip), vehicle: saline with Tween-80 95 % of control | dose: 6.25 mg/kg/injection, schedule: Q01DX009 (ip), vehicle: saline with Tween-80 105 % of control

c1ccc2c(c1)cnc1ccccc12
inactive: [10] 97 % of control | [11] 104 % of control | [12] 104 % of control

COC(CNc1nc2c(s1)c1c(O)c3c(O)c(C)c4c(c32)C(=O)C(C)(O/C=C\C(OC)C(C)C(OC(C)=O)C(C)C(O)C(C)C(O)C(C)/C=C/C=C(/C)C(=O)N1)O4)OC (stereo not given)
inactive: [19] 93 % of control | [1] 95 % of control | [2] 93 % of control | [3] 94 % of control

CC(C)N(CCO)CC(O)Cn1cnc2c(N)ncnc21 (stereo not given) (tested in a mixture with another compound)
inactive: dose: 60.0 mg/kg/injection, schedule: Q01DX005 (ip), vehicle: saline 97 % of control | dose: 120.0 mg/kg/injection, schedule: Q01DX005 (ip), vehicle: saline 94 % of control | dose: 240.0 mg/kg/injection, schedule: Q01DX005 (ip), vehicle: saline 93 % of control

CN1C(c2ccccc2)=C(C#N)C(=O)CC(c2cccs2)N1C (stereo not given)
inactive: [13] 96 % of control | [14] 99 % of control | [15] 86 % of control

COC(=N)CCNC(=O)C(O)C(O)C(=O)NCCC(=N)OC (stereo not given)
inactive: [9] 102 % of control | [20] 89 % of control | [21] 105 % of control

CC(=O)/C(C(=N)c1nc(C)c(C(=O)c2ccccc2)c(C(N)=O)n1)=C(/O)c1ccccc1
inactive: dose: 100.0 mg/kg/injection, schedule: Q01DX001 (ip), vehicle: Klucel (hydroxypropylcellulose) (HPC) 90 % of control | dose: 200.0 mg/kg/injection, schedule: Q01DX001 (ip), vehicle: Klucel (hydroxypropylcellulose) (HPC) 88 % of control | dose: 400.0 mg/kg/injection, schedule: Q01DX001 (ip), vehicle: Klucel (hydroxypropylcellulose) (HPC) 89 % of control

c1ccc(C2c3ccccc3C(c3ccccc3)(c3ccccc3)c3ccccc32)cc1
inactive: dose: 12.5 mg/kg/injection, schedule: Q01DX009 (ip), vehicle: Klucel (hydroxypropylcellulose) (HPC) 91 % of control | [19] 95 % of control | [1] 94 % of control | [2] 91 % of control

Cc1nn(-c2ccccc2)c(SC(C)(C)C)c1C=NCCN=Cc1c(C)nn(-c2ccccc2)c1SC(C)(C)C
inactive: dose: 3.75 mg/kg/injection, schedule: Q01DX005 (ip), vehicle: Klucel (hydroxypropylcellulose) (HPC) 100 % of control | dose: 7.5 mg/kg/injection, schedule: Q01DX005 (ip), vehicle: Klucel (hydroxypropylcellulose) (HPC) 98 % of control | dose: 15.0 mg/kg/injection, schedule: Q01DX005 (ip), vehicle: Klucel (hydroxypropylcellulose) (HPC) 100 % of control

NC(N)=NS(=O)(=O)c1ccc(N=c2c3ccccc3n(Cc3ccccc3)c3ccccc23)cc1
inactive: dose: 50.0 mg/kg/injection, schedule: Q01DX005 (ip), vehicle: saline with Tween-80 97 % of control | dose: 100.0 mg/kg/injection, schedule: Q01DX005 (ip), vehicle: saline with Tween-80 98 % of control

O=C(NCCc1ccccn1)c1cc(Cl)ccc1O
inactive: dose: 100.0 mg/kg/injection, schedule: Q04DX002 (ip), vehicle: Klucel (hydroxypropylcellulose) (HPC) 95 % of control | dose: 200.0 mg/kg/injection, schedule: Q04DX002 (ip), vehicle: Klucel (hydroxypropylcellulose) (HPC) 103 % of control | dose: 400.0 mg/kg/injection, schedule: Q04DX002 (ip), vehicle: Klucel (hydroxypropylcellulose) (HPC) 100 % of control

O=C1CC(=O)N2C(=O)CC(=O)N12
inactive: [13] 99 % of control | [14] 103 % of control | [15] 97 % of control

Cc1ccc2c(c1)sc1nncn12
inactive: [1] 94 % of control | [2] 105 % of control

N#Cc1c(N)sc(=S)c2c1CCCC2
inactive: [9] 104 % of control | [20] 95 % of control | [21] 95 % of control

c1cc2n(n1)CCN2
inactive: [7] 104 % of control | [8] 109 % of control | [9] 100 % of control and 104 % of control | dose: 80.0 mg/kg/injection, schedule: Q01DX009 (ip), vehicle: saline 111 % of control | [20] 111 % of control and 120 % of control | dose: 120.0 mg/kg/injection, schedule: Q01DX009 (ip), vehicle: saline 113 % of control | [21] 100 % of control | dose: 225.0 mg/kg/injection, schedule: Q03DX003 (ip), vehicle: saline 111 % of control | dose: 264.0 mg/kg/injection, schedule: Q04DX003 (ip), vehicle: saline 100 % of control | dose: 300.0 mg/kg/injection, schedule: Q03DX003 (ip), vehicle: saline 111 % of control | dose: 375.0 mg/kg/injection, schedule: Q03DX003 (ip), vehicle: saline 124 % of control | dose: 400.0 mg/kg/injection, schedule: Q04DX003 (ip), vehicle: saline 118 % of control

CC(=O)Cc1ncn(-c2cc(C)on2)n1
inactive: [4] 111 % of control | [5] 113 % of control | [6] 100 % of control
